Assays:
HeLa cells = test: Cell cycle distribution by flow cytometry (propidium iodide), HeLa; format: cell-based, human; conditions: for SubG1 (%) / G2/M (%) / S (%) / G0/G1 (%): HeLa, 10 μg/mL, 24 h; for SubG1 (%): control 2.3 ± 0.4; for G2/M (%): control 12.2 ± 1.3; for S (%): control 12.5 ± 1.7; for G0/G1 (%): control 73.1 ± 2.6
Protocol: (§1) One of the indicators of the influence of biologically active products on the cells is the changed distribution of cells during different stages of the cell cycle. In this work, recently synthesized compounds were tested using flow cytometry for their effect on the distribution of cells in the cell cycle (G0/G1, G2/M, and S). Figure 8, Figure 9 and Figure 10 and Table 3 show the typical data after processing the results from three replicates of each experiment.
(§2) The distribution of HeLa and CT26 cells in the G0/G1-, S-, and G2/M-phases of the cell cycle was obtained by quantification of DNA content in propidium-iodide-stained cells using flow cytometry. Briefly, cells were seeded in 24-well plates at a density of 5 × 10^4 cells per well. After 24 h incubation, cells were exposed to 10 μg/mL of compounds 4c–i (the structure is provided in Scheme 1) for 24 h. The effects of compounds 4d, 4e, 4g, 4h were additionally tested at concentrations of 2 and 5 μg/mL. After incubation with drugs, the cells were detached by exposure to trypsin-EDTA for 5 min at 37 °C and then collected by pipetting. This was followed by treatment with 0.2 mg/mL saponin (Fluka, Waltham, MA, USA), 0.25 mg/mL RNase (Sigma-Aldrich, St. Louis, MO, USA), and 0.05 mg/mL propidium iodide (Invitrogen, Carlsbad, CA, USA). After washing, the samples were analyzed by standard flow cytometer (BD FACSCanto II, Becton Dickinson, San Jose, CA, USA). Then, 10,000 events were acquired for the sample. Data processing was performed using BD FACSDiva 9.0 software.

CT26 cells = test: Cell cycle distribution by flow cytometry (propidium iodide), CT26; format: cell-based, mouse; conditions: for SubG1 (%) / G2/M (%) / S (%) / G0/G1 (%): CT26, 10 μg/mL, 24 h; for SubG1 (%): control 3.6 ± 0.6; for G2/M (%): control 12.3 ± 0.9; for S (%): control 40.1 ± 1.5; for G0/G1 (%): control 44.0 ± 1.7; for cytostatic effect (cell cycle), CT26: CT26 cell line
Protocol: as §1, §2

Vero cells = test: Actin cytoskeleton staining (rhodamine-phalloidin, confocal microscopy), Vero; format: cell-based, African green monkey; conditions: 5 μg/mL, 24 h
Protocol: Therefore, in the current study, the actin cytoskeleton structure of HeLa, CT26, and Vero cells was analyzed, after the impact of compounds 4a–i, by the presence of filopodia-like protrusions and the availability of stress fibers (Figure 14, Figure 15 and Figure 16). […] HeLa cells were more sensitive to the action of tested products, compared to CT26 and Vero cells.
Cells were seeded onto Petri dishes with cover slips at a density of 2 × 10^5 cells per dish and incubated for 24 h. After that, cells were treated with compounds 4d, 4e, 4f, 4h, and 4i (5 μg/mL) for 24 h. The medium was removed, and cells were fixed with 4% paraformaldehyde (Sigma-Aldrich, St. Louis, MO, USA), washed three times with PBS, and permeabilized with 0.3% Triton-X100 (Sigma-Aldrich, St. Louis, MO, USA). The cells were rinsed three times with PBS. Actin filaments (microfilaments) were stained at 37 °C for 15 min with rhodamine-phalloidin (Invitrogen, Carlsbad, CA, USA). The samples were rinsed three times with PBS, followed by embedding in Fluoroshield medium (Sigma-Aldrich, St. Louis, MO, USA). Cells were imaged using an Axio Observer Z1 confocal microscope (Carl Zeiss MicroImaging GmbH, Jena, Germany). In each experiment, at least 30 cells were imaged. Images were analyzed by a pathologist, blinded to the treatment mode used for each group, using ImageJ software.

CT26 tumor = test: In vivo evaluation in CT26 tumor-bearing Balb/C mice; conditions: for death of experimental animals by the end of the observation period: n = 7 per group, single i.p. 300 μL of 3 μM suspension, 10 days, control group one animal; for autopsy finding in the abdominal cavity (agglomerates of injected material): single i.p. injection, autopsy at end of experiment, diameter of up to 1 mm
Protocol: In vivo studies were performed using CT26 tumor-bearing Balb/C mice. After the average tumor volume reached approximately 270 mm^3, the mice were injected intraperitoneally with 300 μL of 3 μM suspension of compounds 4d, 4e, 4f, and 4i in 10% aq. DMSO solution. Mice in the control group were injected with 300 μL of 10% aq. DMSO solution. Observation of the animals continued for 10 days, with the measurement of tumor sizes two times a week.
All animals were bred and maintained in specific pathogen-free facilities in accordance with the Rus-LASA and FELASA guidelines. This study complied with all relevant ethical regulations for animal testing and research and received ethical approval from the Almazov National Medical Research Centre (protocol No. 21-02, dated 26 March 2021). Animal experiments were carried out in accordance with the principles of humane treatment of animals, regulated by requirements of Council of Europe 2006; European Convention for the Protection of Vertebrate Animals Used for Experimental and other Scientific Purposes (ETS No. 123); the European Parliament and the Council of the European Union 2010; Directive 2010/63/EU of the European Parliament and of the Council of 22 September 2010 on the Protection of Animals Used for Scientific Purposes; and FELASA guidelines. Male, 20–22 g, SPF Balb/C mice (Pushchino, Moscow region, Russian Federation) were used throughout. Animals were maintained at 22 ± 2 °C and relative humidity 50 ± 10% with 12 h light/dark cycle. All mice received water and food ad libitum. Animals were checked daily by the veterinarian, and their state of health was monitored continuously. Animal body weight was recorded every three days (GX-600 Precision Balance, A&D Weighing, San Jose, CA, USA).
The greatest transverse diameter (width) and the greatest longitudinal diameter (length) of a tumor were determined with a Vernier mechanical caliper. The tumor volume (V) was calculated using the following formula: V = length × width 2/2000 [50]. Mice were inoculated subcutaneously in the right flank, with 2 × 10^6 CT26 cells per mouse in PBS (Corning, Glendale, AZ, USA). Ten days later, when the average tumor volume reached […], the mice were randomized into groups (n = 7 per group). An amount of 300 μL of 3 μM suspension of compounds 4d, 4e, 4f, and 4i in 10% aq. DMSO solution was injected intraperitoneally at once. The control group was injected with 10% aq. DMSO solution only. The tumor volumes were monitored as described above, along with body weight. Mice were euthanized when the subcutaneous tumor reached a volume of […].

| Structure (SMILES) | cytostatic effect (cell cycle), HeLa (HeLa cells; HeLa cell line) | SubG1 (%) (HeLa cells) | G2/M (%) (HeLa cells) | S (%) (HeLa cells) | G0/G1 (%) (HeLa cells) | SubG1 (%) (CT26 cells) | G2/M (%) (CT26 cells) | S (%) (CT26 cells) | G0/G1 (%) (CT26 cells) | cytostatic effect (cell cycle), CT26 (CT26 cells) | percentage of cells with disassembled stress fibers (D) (Vero cells) | percentage of cells with filopodia-like deformations (A) (Vero cells) | percentage of cells with normal stress fibers (C) (Vero cells) | percentage of cells without filopodia-like deformations (B) (Vero cells) | death of experimental animals by the end of the observation period (CT26 tumor) | autopsy finding in the abdominal cavity (agglomerates of injected material) (CT26 tumor) |
| --- | --- | --- | --- | --- | --- | --- | --- | --- | --- | --- | --- | --- | --- | --- | --- | --- |
| CCCCCC[C@@H]1NC2(C(=O)NC(=O)NC2=O)[C@]2(c3ccccc3)[C@@H](c3ccccc3)[C@]12c1ccccc1 [Compound 4g] | strongest cytostatic effect | 39.5 ± 5.0 % | 5.3 ± 0.7 % | 13.3 ± 0.8% | 41.8 ± 3.0 % | 1.9 ± 0.5 % | 19.4 ± 4.7 % | 17.0 ± 4.3 % | 61.7 ± 9.4 % | – | – | – | – | – | – | – |
| CCC[C@@H]1NC2(C(=O)NC(=O)NC2=O)[C@]2(c3ccccc3)[C@@H](c3ccccc3)[C@]12c1ccccc1 [Compound 4d] | – | 18.1 ± 1.0 % | 8.4 ± 1.5 % | 15.5 ± 1.1 % | 58.0 ± 4.4 % | 12.2 ± 1.1 % | 17.9 ± 0.6 % | 34.4 ± 2.3 % | 35.6 ± 1.0 % | best effect | 6% | 45% | 94% | 55% | No deaths | persistent, rounded, dense agglomerates of white or yellowish-white foreign material |
| CC(C)C[C@@H]1NC2(C(=O)NC(=O)NC2=O)[C@]2(c3ccccc3)[C@@H](c3ccccc3)[C@]12c1ccccc1 [Compound 4f] | – | 10.5 ± 2.0 % | 12.8 ± 1.3% | 15.2 ± 1.2 % | 61.5 ± 3.3 % | 24.9 ± 5.2 % | 13.5 ± 0.9 % | 31.9 ± 2.6 % | 29.7 ± 1.4 % | best effect | 4% | 43% | 96% | 57% | one | – |
| CSCC[C@@H]1NC2(C(=O)NC(=O)NC2=O)[C@]2(c3ccccc3)[C@@H](c3ccccc3)[C@]12c1ccccc1 [Compound 4h] | – | 9.9 ± 7.8 % | 12.6 ± 0.8% | 13.9 ± 1.8% | 63.6 ± 6.8 % | 10.8 ± 2.3 % | 18.9 ± 6.8 % | 32.0 ± 0.6 % | 38.3 ± 7.9 % | best effect | 8% | 46% | 92% | 54% | – | – |
| O=C1NC(=O)C2(N[C@@H](c3ccccc3)[C@@]3(c4ccccc4)[C@H](c4ccccc4)[C@@]23c2ccccc2)C(=O)N1 [Compound 4i] | – | 20.1 ± 1.3 % | 9.9 ± 0.8 % | 18.1 ± 2.4 % | 51.8 ± 4.0 % | 7.2 ± 2.2 % | 22.4 ± 1.7 % | 37.2 ± 0.2 % | 33.2 ± 0.6 % | best effect | 2% | 30% | 98% | 70% | three | persistent, rounded, dense agglomerates of white or yellowish-white foreign material |
| CC[C@@H]1NC2(C(=O)NC(=O)NC2=O)[C@]2(c3ccccc3)[C@@H](c3ccccc3)[C@]12c1ccccc1 [Compound 4c] | – | 8.1 ± 1.9 % | 11.0 ± 1.5% | 17.6 ± 1.2 % | 63.3 ± 2.2 % | 2.0 ± 0.4 % | 13.2 ± 2.9 % | 16.3 ± 1.7 % | 68.5 ± 3.0 % | – | – | – | – | – | – | – |
